This note sets out measurements from patent US10800792B2, “Inhibitors of Bruton's tyrosine kinase and method of their use” (JANSSEN PHARMACEUTICA NV, priority 2015, dated 2020).

The target of one test is unphosphorylated-BTK kinase domain (UP-BTK), GST-tagged human BTK (389-659aa) (Homo sapiens (Human), UniProt Q06187). Description: BTK kinase Lanthascreen binding assay. Particulars: pIC50 = negative log of the IC50 in molar; 60 minutes incubation, 50 nM Tracer 236. In a few lines: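 A fluorescent tracer is bound to unphosphorylated BTK; test compound is added to compete it off; the Lanthascreen signal is read and IC50 is fitted, then reported as its negative log in molar.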
Sequence of unphosphorylated-BTK kinase domain (UP-BTK), GST-tagged human BTK (389-659aa) (Q06187 389-659): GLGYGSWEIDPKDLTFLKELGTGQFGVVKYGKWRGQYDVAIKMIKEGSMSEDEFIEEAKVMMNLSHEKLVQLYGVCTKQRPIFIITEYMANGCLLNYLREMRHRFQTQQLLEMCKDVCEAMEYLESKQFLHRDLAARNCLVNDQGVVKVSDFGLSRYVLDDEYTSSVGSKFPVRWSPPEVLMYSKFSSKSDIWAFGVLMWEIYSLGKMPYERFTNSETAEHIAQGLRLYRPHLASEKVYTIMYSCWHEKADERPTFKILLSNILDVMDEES
On the technique in general: In TR-FRET formats the signal depends on donor and acceptor labels being close together.
Consider `N#C/C(=C\C1CC1)C(=O)N1CCC[C@@H](NC(=O)c2sc3nccc4c3c2NC(=O)N4c2ccc(Oc3ccccc3)cc2F)C1` [Example 79, (R,E)-N-(1-(2-Cyano-3-cyclopropylacryloyl)piperidin-3-yl)-5-(2-fluoro-4-phenoxyphenyl)-4-oxo-4,5-dihydro-3H-1-thia-3,5,8-triazaacenaphthylene-2-carboxamide], for which the “BTK_I_binding pIC50” value amounted to 7.5. As to `C=CC(=O)N1CC[C@@H](NC(=O)c2sc3nccc4c3c2NC(=O)N4c2c(C)cc(Oc3ccccc3)cc2C)C1` [Example 81, (R)—N-(1-Acryloylpyrrolidin-3-yl)-5-(2,6-dimethyl-4-phenoxyphenyl)-4-oxo-4,5-dihydro-3H-1-thia-3,5,8-triazaacenaphthylene-2-carboxamide], the “BTK_I_binding pIC50” value is on record as 6.6. The same measure, in the same setting: with `C=CC(=O)N1CCC[C@@H](NC(=O)c2sc3nccc4c3c2NC(=O)N4c2ccc(S(F)(F)(F)(F)F)cc2C)C1` [Example 83, (R)—N-(1-Acryloylpiperidin-3-yl)-5-(2-methyl-4-(pentafluorothio)phenyl)-4-oxo-4,5-dihydro-3H-1-thia-3,5,8-triazaacenaphthylene-2-carboxamide] the figure was 6.8; with `C=CC(=O)N1CCC[C@@H](NC(=O)c2sc3nccc4c3c2NC(=O)N4c2ccc(C)cc2C)C1` [Example 86, (R)—N-(1-Acryloylpiperidin-3-yl)-5-(2,4-dimethylphenyl)-4-oxo-4,5-dihydro-3H-1-thia-3,5,8-triazaacenaphthylene-2-carboxamide], 6.7.

Take `COCCC(=O)N1CCC[C@@H](NC(=O)c2sc3nccc4c3c2NC(=O)N4c2ccc(Oc3ccccc3)c(F)c2C)C1` [Example 89, (R)-5-(3-Fluoro-2-methyl-4-phenoxyphenyl)-N-(1-(3-methoxypropanoyl)piperidin-3-yl)-4-oxo-4,5-dihydro-3H-1-thia-3,5,8-triazaacenaphthylene-2-carboxamide]: the “BTK_I_binding pIC50” value amounted to 7.1. Same read-out and setting: then `Cc1cc(Oc2ccccc2)ccc1N1C(=O)Nc2c(C(=O)N[C@H]3CCOC3)sc3nccc1c23` [Example 90, (S)-5-(2-Methyl-4-phenoxyphenyl)-4-oxo-N-(tetrahydrofuran-3-yl)-4,5-dihydro-3H-1-thia-3,5,8-triazaacenaphthylene-2-carboxamide], with 7.5; and `CNCC(=O)N1CCC[C@@H](NC(=O)c2sc3nccc4c3c2NC(=O)N4c2ccc(Oc3ccccc3)cc2C)C1` [Example 91, (R)-5-(2-Methyl-4-phenoxyphenyl)-N-(1-(2-(methylamino)acetyl)piperidin-3-yl)-4-oxo-4,5-dihydro-3H-1-thia-3,5,8-triazaacenaphthylene-2-carboxamide], with 7.3. On the same count and under the same terms, with `COCCC(=O)N1C[C@@H](F)[C@@H](NC(=O)c2sc3nccc4c3c2NC(=O)N4c2ccc(Oc3ccccc3)cc2C)C1` [Example 94, N-((3S,4R)-4-Fluoro-1-(3-methoxypropanoyl)pyrrolidin-3-yl)-5-(2-methyl-4-phenoxyphenyl)-4-oxo-4,5-dihydro-3H-1-thia-3,5,8-triazaacenaphthylene-2-carboxamide] the figure was 7.6; with `COCC(=O)N1CCC[C@@H](NC(=O)c2sc3nccc4c3c2NC(=O)N4c2ccc(Oc3ccccc3)cc2C)C1` [Example 95, (R)—N-(1-(2-Methoxyacetyl)piperidin-3-yl)-5-(2-methyl-4-phenoxyphenyl)-4-oxo-4,5-dihydro-3H-1-thia-3,5,8-triazaacenaphthylene-2-carboxamide], 7.4. Still for that read-out and setting: with `Cc1cc(Oc2ccccc2)ccc1N1C(=O)Nc2c(C(=O)NC3CCCCN(C#N)C3)sc3nccc1c23` (stereo not shown) [Example 97, N-(1-Cyanoazepan-3-yl)-5-(2-methyl-4-phenoxyphenyl)-4-oxo-4,5-dihydro-3H-1-thia-3,5,8-triazaacenaphthylene-2-carboxamide] the figure was 6.9; with `Cc1cc(Oc2ccccc2)ccc1N1C(=O)Nc2c(C(=O)N[C@@H]3CCCN(C(C)C)C3)sc3nccc1c23` [Example 101, (R)—N-(1-Isopropylpiperidin-3-yl)-5-(2-methyl-4-phenoxyphenyl)-4-oxo-4,5-dihydro-3H-1-thia-3,5,8-triazaacenaphthylene-2-carboxamide], 6.8.

On to `Cc1cc(OC(C)C)ccc1N1C(=O)Nc2c(C(=O)N[C@@H]3CCCN(C(=O)/C(C#N)=C/C4CC4)C3)sc3nccc1c23` [Example 102, (R,E)-N-(1-(2-Cyano-3-cyclopropylacryloyl)piperidin-3-yl)-5-(4-isopropoxy-2-methylphenyl)-4-oxo-4,5-dihydro-3H-1-thia-3,5,8-triazaacenaphthylene-2-carboxamide], for which the “BTK_I_binding pIC50” value came out at 7.5. Still for that read-out and setting: then `Cc1cc(Oc2ccccc2)ccc1N1C(=O)Nc2c(C(=O)NC3CCC(C)N(C)C3)sc3nccc1c23` (stereo not shown) [Example 103, N-(1,6-Dimethylpiperidin-3-yl)-5-(2-methyl-4-phenoxyphenyl)-4-oxo-4,5-dihydro-3H-1-thia-3,5,8-triazaacenaphthylene-2-carboxamide], with 6.7; and `Cc1cc(Oc2ccccc2)ccc1N1C(=O)Nc2c(C(=O)N[C@@H]3CCN(C(=O)CCS(C)(=O)=O)C3)sc3nccc1c23` [Example 104, (R)-5-(2-Methyl-4-phenoxyphenyl)-N-(1-(3-(methylsulfonyl)propanoyl)pyrrolidin-3-yl)-4-oxo-4,5-dihydro-3H-1-thia-3,5,8-triazaacenaphthylene-2-carboxamide], with 7.7. On the same count and under the same terms, then `C/C=C/C(=O)N1CCC[C@@H](NC(=O)c2sc3nccc4c3c2NC(=O)N4c2ccc(Oc3ccccc3)cc2C)C1` [Example 105, (R,E)-N-(1-(But-2-enoyl)piperidin-3-yl)-5-(2-methyl-4-phenoxyphenyl)-4-oxo-4,5-dihydro-3H-1-thia-3,5,8-triazaacenaphthylene-2-carboxamide], with 6.9; and `CNCCC(=O)N1CCC[C@@H](NC(=O)c2sc3nccc4c3c2NC(=O)N4c2ccc(Oc3ccccc3)cc2C)C1` [Example 106, (R)-5-(2-Methyl-4-phenoxyphenyl)-N-(1-(3-(methylamino)propanoyl)piperidin-3-yl)-4-oxo-4,5-dihydro-3H-1-thia-3,5,8-triazaacenaphthylene-2-carboxamide], with 7.3; and `O=C(N[C@@H]1CCCNC1)c1sc2nccc3c2c1NC(=O)N3c1ccc(Oc2ccccc2)cc1F` [Example 107, (R)-5-(2-Fluoro-4-phenoxyphenyl)-4-oxo-N-(piperidin-3-yl)-4,5-dihydro-3H-1-thia-3,5,8-triazaacenaphthylene-2-carboxamide], with 7.5. For `Cc1cc(Oc2ccccc2)ccc1N1C(=O)Nc2c(C(=O)N[C@@H]3CCOC3)sc3nccc1c23` [Example 108, (R)-5-(2-Methyl-4-phenoxyphenyl)-4-oxo-N-(tetrahydrofuran-3-yl)-4,5-dihydro-3H-1-thia-3,5,8-triazaacenaphthylene-2-carboxamide], the “BTK_I_binding pIC50” value came to 7.5.

With `C=CC(=O)N1CC(NC(=O)c2sc3nccc4c3c2NC(=O)N4c2ccc(Oc3ccccc3)cc2C)C1` [Example 109, N-(1-Acryloylazetidin-3-yl)-5-(2-methyl-4-phenoxyphenyl)-4-oxo-4,5-dihydro-3H-1-thia-3,5,8-triazaacenaphthylene-2-carboxamide], the “BTK_I_binding pIC50” value worked out at 7.2. Same read-out and setting: with `Cc1c(N2C(=O)Nc3c(C(=O)N[C@@H]4CCCN(C(=O)CCS(C)(=O)=O)C4)sc4nccc2c34)ccc(Oc2ccccc2)c1F` [Example 113, (R)-5-(3-Fluoro-2-methyl-4-phenoxyphenyl)-N-(1-(3-(methylsulfonyl)propanoyl)piperidin-3-yl)-4-oxo-4,5-dihydro-3H-1-thia-3,5,8-triazaacenaphthylene-2-carboxamide] the figure was 7.3; with `Cc1c(N2C(=O)Nc3c(C(=O)N[C@@H]4CCCN(C(=O)CO)C4)sc4nccc2c34)ccc(Oc2ccccc2)c1F` [Example 114, (R)-5-(3-Fluoro-2-methyl-4-phenoxyphenyl)-N-(1-(2-hydroxyacetyl)piperidin-3-yl)-4-oxo-4,5-dihydro-3H-1-thia-3,5,8-triazaacenaphthylene-2-carboxamide], 7.3; with `COCC(=O)N1CCC[C@@H](NC(=O)c2sc3nccc4c3c2NC(=O)N4c2ccc(Oc3ccccc3)c(F)c2C)C1` [Example 115, (R)-5-(3-Fluoro-2-methyl-4-phenoxyphenyl)-N-(1-(2-methoxyacetyl)piperidin-3-yl)-4-oxo-4,5-dihydro-3H-1-thia-3,5,8-triazaacenaphthylene-2-carboxamide], 7.4. For the compound `C/C=C\C(=O)N1CCC[C@@H](NC(=O)c2sc3nccc4c3c2NC(=O)N4c2ccc(Oc3ccccc3)cc2C)C1` [Example 116, (R,Z)—N-(1-(But-2-enoyl)piperidin-3-yl)-5-(2-methyl-4-phenoxyphenyl)-4-oxo-4,5-dihydro-3H-1-thia-3,5,8-triazaacenaphthylene-2-carboxamide], the “BTK_I_binding pIC50” value stood at 7.2.

Staying with this test, now noted: pIC50 = negative log of the IC50 in molar; 60 minutes incubation, 50 nM Tracer 236; read-out: BTK_I_binding pIC50 (converted).
For `COc1ccc(N2C(=O)Nc3c(C(=O)N[C@@H]4CCCN(C(=O)C=[13CH2])C4)sc4nccc2c34)c(C)c1` [Example 110, (R)—N-(1-^13C-Acryloylpiperidin-3-yl)-5-(4-methoxy-2-methylphenyl)-4-oxo-4,5-dihydro-3H-1-thia-3,5,8-triazaacenaphthylene-2-carboxamide], the IC50 is 158 nM. Same read-out and setting: with `COC[C@@H](N)C(=O)N1CCC[C@@H](NC(=O)c2sc3nccc4c3c2NC(=O)N4c2ccc(Oc3ccccc3)cc2C)C1` [Example 111, N—((R)-1-((R)-2-Amino-3-methoxypropanoyl)piperidin-3-yl)-5-(2-methyl-4-phenoxyphenyl)-4-oxo-4,5-dihydro-3H-1-thia-3,5,8-triazaacenaphthylene-2-carboxamide] the figure was 63.1 nM.
